Measurements from ChEMBL document CHEMBL5032514, “Portobelamides A and B and Caciqueamide, Cytotoxic Peptidic Natural Products from a Caldora sp. Marine Cyanobacterium” (2021).

System: NCI-H460
Experiment: Cytotoxicity against human NCI-H460 cells assessed as cell survival at 0.9 uM measured after 48 hrs by MTT assay
Assay type: functional
Conditions: read-out: Activity

With C#CCCC[C@@H]1NC(=O)[C@H](C(C)C)N(C)C(=O)[C@H](COC)N(C)C(=O)[C@H](C(C)C)NC(=O)[C@H](COC)N(C)C(=O)[C@H](C)N(C)C(=O)[C@H](C(C)C)N(C)C(=O)[C@@H]2CCCN2C(=O)[C@H](C(C)C)NC(=O)[C@H]([C@@H](C)CC)N(C)C(=O)[C@H](C(C)C)N(C)C(=O)[C@@H](C(C)C)OC(=O)[C@H]1C the viability at 0.9 µM was 97%.
For C#CCCC[C@@H]1NC(=O)[C@H](C(C)C)N(C)C(=O)[C@H](C)N(C)C(=O)[C@H](COC)NC(=O)[C@H](C(C)C)N(C)C(=O)[C@H](CC(C)C)N(C)C(=O)[C@@H]2CCCN2C(=O)[C@H](C(C)C)NC(=O)[C@H](COC)N(C)C(=O)[C@H](C(C)C)NC(=O)[C@@H](C(C)C)OC(=O)[C@H]1C, the viability at 0.9 µM was 33%.
Compound C/C=C(\NC(=O)C(NC(=O)C(C)C(O)CCCCCCCCCCCCC(=O)CCCC)C(C)O)C(=O)NC(C)c1nc(C(=O)NC(C)C(C)=O)cs1 (stereo not drawn) has a viability at 0.9 µM of 78%.
